This note sets out measurements from publication PMC6704710, “Preclinical evaluation of 3D185, a novel potent inhibitor of FGFR1/2/3 and CSF-1R, in FGFR-dependent and macrophage-dominant cancer models” (Journal of Experimental & Clinical Cancer Research : CR, 2019).

Holding throughout (test): Eurofins kinase panel
Holding throughout (format): biochemical
Common to all, as to conditions: read-out: Inhibition rate (%)

One test concerns the target T1, B-Raf(h) (Homo sapiens, UniProt P15056).
T1 construct: purchased Eurofins (KinaseProfiler)

Another test has as its target T2, DNA-PK(h) (Homo sapiens, UniProt P78527).
T2 construct: purchased Eurofins (KinaseProfiler)

Another test concerns the target T3, MAPK2(h) (Homo sapiens, UniProt P28482).
T3 construct: purchased Eurofins (KinaseProfiler)

The target in another test is T4, NEK4(h) (Homo sapiens, UniProt P51957).
T4 construct: purchased Eurofins (KinaseProfiler)

The target of another test is T5, NUAK2(h) (Homo sapiens, UniProt Q9H093).
T5 construct: purchased Eurofins (KinaseProfiler)
T5 sequence (Q9H093 1-628): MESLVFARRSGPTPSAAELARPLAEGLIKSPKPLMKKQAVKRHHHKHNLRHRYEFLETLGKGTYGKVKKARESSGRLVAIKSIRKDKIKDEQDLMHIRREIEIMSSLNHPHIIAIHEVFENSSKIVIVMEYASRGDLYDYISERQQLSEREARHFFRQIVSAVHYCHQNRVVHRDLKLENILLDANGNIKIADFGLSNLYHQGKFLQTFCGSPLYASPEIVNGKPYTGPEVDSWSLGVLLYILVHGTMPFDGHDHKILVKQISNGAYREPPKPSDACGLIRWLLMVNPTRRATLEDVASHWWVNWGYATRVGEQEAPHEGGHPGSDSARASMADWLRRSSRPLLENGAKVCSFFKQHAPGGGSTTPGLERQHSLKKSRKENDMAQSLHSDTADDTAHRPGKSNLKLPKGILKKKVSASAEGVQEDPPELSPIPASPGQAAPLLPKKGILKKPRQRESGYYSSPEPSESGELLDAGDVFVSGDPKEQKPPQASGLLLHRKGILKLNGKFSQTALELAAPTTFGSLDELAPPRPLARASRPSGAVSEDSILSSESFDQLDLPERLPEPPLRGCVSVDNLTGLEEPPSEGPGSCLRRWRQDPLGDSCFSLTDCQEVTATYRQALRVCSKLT

The target in a further test is T6, PKBγ(h) (Homo sapiens, UniProt Q9Y243).
T6 construct: purchased Eurofins (KinaseProfiler)

The target of a further test is T7, Ron(h) (Homo sapiens, UniProt Q04912).
T7 construct: purchased Eurofins (KinaseProfiler)

The target in another test is T8, TAO3(h) (Homo sapiens, UniProt Q9H2K8).
T8 construct: purchased Eurofins (KinaseProfiler)
T8 sequence (Q9H2K8 1-898): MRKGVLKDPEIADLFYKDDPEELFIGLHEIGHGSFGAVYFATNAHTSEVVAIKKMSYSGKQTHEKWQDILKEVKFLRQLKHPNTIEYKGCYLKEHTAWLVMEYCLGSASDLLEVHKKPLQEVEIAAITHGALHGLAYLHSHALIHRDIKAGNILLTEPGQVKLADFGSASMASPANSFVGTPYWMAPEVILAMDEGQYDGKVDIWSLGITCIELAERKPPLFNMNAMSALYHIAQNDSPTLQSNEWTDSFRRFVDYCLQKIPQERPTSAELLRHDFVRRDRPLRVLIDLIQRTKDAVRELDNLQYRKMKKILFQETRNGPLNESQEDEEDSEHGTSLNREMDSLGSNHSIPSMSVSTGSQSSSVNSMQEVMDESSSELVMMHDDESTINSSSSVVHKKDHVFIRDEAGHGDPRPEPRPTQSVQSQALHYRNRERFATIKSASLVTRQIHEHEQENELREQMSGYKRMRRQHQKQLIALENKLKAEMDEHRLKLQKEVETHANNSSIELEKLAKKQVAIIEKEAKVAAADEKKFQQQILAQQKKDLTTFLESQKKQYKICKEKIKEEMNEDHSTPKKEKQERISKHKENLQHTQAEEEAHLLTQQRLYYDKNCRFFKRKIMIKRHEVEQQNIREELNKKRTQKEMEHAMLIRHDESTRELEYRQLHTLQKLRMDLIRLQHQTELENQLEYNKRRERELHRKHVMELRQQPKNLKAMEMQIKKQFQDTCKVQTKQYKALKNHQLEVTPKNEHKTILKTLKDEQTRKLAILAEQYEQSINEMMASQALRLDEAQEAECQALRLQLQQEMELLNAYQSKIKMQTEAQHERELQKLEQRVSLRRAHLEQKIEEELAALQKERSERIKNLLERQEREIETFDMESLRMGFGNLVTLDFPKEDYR

T1 sequence (P15056 whole entry): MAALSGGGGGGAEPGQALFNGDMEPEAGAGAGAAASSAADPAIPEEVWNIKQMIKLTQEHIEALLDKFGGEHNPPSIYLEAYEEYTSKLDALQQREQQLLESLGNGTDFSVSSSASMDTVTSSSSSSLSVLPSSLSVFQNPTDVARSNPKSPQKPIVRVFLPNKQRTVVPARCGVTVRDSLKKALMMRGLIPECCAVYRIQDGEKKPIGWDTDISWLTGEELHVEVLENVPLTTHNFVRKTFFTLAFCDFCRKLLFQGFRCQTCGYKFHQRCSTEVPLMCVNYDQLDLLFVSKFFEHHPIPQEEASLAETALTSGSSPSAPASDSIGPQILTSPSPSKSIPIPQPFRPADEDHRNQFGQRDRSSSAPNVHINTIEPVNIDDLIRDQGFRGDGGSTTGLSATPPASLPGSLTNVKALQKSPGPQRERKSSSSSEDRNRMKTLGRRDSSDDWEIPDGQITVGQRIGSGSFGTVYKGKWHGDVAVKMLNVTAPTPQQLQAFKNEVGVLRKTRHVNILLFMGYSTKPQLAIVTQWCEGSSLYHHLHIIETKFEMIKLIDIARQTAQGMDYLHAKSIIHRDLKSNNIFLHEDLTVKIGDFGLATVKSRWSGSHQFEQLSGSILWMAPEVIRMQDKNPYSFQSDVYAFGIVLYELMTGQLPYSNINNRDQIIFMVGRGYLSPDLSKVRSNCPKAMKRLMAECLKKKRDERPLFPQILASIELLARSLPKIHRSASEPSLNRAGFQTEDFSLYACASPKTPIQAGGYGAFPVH
T4 sequence (P51957 whole entry): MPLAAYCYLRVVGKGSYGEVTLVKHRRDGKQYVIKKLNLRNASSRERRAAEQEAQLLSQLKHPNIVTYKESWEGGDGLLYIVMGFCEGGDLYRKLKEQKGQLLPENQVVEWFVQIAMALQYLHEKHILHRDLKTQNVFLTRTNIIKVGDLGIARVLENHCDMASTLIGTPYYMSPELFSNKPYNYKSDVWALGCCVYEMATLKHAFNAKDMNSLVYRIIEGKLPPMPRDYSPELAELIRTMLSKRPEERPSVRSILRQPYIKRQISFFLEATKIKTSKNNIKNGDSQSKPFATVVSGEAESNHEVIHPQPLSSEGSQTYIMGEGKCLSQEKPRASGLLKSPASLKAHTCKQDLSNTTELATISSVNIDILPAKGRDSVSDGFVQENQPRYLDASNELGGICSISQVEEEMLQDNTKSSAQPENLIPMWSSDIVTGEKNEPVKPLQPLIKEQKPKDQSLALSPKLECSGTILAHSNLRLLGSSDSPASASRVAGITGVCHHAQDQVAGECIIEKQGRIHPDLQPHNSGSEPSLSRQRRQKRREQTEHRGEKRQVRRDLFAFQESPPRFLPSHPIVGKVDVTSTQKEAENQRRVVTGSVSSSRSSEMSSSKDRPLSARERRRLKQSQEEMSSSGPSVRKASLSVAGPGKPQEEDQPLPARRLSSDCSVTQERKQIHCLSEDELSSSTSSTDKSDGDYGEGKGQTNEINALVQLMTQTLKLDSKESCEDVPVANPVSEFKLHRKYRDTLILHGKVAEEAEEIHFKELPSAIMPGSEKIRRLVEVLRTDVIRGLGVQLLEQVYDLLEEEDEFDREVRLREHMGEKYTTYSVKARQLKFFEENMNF
T7 sequence (Q04912 25-1400): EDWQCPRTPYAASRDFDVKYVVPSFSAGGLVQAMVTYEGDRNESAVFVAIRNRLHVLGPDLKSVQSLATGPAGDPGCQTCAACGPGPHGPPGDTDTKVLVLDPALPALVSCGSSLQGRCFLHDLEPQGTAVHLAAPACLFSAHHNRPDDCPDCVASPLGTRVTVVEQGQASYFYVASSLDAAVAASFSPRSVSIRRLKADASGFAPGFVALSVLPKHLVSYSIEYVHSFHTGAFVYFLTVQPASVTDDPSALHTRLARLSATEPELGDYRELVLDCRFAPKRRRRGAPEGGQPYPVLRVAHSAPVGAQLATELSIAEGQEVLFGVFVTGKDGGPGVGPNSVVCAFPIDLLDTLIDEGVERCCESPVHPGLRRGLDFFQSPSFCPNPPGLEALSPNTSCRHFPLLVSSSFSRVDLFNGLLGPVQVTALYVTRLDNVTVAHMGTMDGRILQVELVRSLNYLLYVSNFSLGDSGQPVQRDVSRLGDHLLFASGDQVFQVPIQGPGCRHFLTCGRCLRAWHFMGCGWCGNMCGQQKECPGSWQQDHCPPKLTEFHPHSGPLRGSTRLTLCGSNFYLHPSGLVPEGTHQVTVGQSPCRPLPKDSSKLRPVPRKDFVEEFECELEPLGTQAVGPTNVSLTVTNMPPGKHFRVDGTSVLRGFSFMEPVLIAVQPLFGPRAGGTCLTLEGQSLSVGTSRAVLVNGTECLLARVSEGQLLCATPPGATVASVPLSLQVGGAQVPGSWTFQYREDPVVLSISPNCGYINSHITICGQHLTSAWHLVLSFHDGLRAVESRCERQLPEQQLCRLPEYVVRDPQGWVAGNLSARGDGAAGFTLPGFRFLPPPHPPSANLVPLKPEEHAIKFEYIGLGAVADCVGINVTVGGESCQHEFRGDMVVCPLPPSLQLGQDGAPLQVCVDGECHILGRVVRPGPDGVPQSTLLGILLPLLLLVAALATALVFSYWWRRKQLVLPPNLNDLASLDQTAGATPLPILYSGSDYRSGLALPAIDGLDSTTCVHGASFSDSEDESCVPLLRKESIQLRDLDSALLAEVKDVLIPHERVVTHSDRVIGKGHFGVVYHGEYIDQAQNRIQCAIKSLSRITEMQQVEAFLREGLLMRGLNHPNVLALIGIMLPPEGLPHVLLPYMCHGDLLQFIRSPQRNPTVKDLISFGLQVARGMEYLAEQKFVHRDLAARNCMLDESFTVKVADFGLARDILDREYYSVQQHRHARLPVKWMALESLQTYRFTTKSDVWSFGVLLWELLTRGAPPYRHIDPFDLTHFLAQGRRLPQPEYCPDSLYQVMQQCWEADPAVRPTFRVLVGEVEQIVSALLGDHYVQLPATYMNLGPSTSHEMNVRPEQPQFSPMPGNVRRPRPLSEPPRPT
T3 sequence (P28482 whole entry): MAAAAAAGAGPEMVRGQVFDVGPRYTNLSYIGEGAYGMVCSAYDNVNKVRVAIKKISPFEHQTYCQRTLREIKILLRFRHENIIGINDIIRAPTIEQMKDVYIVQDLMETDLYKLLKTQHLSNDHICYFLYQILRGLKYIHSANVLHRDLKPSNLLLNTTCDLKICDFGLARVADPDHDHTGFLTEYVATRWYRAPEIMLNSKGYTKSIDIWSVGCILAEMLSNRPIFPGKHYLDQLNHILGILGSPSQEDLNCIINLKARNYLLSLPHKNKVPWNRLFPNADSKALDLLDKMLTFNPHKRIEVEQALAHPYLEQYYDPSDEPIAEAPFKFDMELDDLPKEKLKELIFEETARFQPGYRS
T6 sequence (Q9Y243 whole entry): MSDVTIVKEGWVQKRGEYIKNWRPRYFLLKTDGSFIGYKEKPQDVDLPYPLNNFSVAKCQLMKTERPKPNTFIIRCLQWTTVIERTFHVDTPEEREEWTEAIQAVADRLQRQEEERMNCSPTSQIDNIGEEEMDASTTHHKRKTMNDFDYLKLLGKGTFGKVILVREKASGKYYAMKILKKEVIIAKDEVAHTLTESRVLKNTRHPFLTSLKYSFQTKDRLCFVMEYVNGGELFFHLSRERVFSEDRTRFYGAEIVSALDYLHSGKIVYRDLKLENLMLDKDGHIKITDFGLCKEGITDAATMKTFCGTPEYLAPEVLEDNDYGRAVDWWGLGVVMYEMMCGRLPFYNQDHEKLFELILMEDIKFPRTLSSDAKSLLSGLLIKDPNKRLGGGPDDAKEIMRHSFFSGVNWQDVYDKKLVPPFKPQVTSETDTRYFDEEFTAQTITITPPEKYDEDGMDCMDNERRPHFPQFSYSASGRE

In general, inhibition refers to the change of the read-out against control, counted positive when it falls. In the case of `COc1cc(OC)c(Cl)c(-c2ccc3c(NC(=O)c4ccc(N5CCNC(C)(C)C5)cc4)n[nH]c3n2)c1Cl` [3D185], the inhibition at 0.01 µM at B-Raf(h) (10 nM) was -4%; at DNA-PK(h) (10 nM), 5%; at MAPK2(h) (10 nM) it was -5%; on NEK4(h) (10 nM) it was 16%; at NUAK2(h) (10 nM), -1%; on PKBγ(h) (10 nM), 4%. The inhibition at 0.01 µM on Ron(h) (10 nM) is -16%; on TAO3(h) (10 nM), -1%. The inhibition at 0.1 µM on B-Raf(h) (100 nM) is -5%; on DNA-PK(h) (100 nM), 2%; at MAPK2(h) (100 nM), -3%; on NEK4(h) (100 nM), 15%; at NUAK2(h) (100 nM), -1%; at PKBγ(h) (100 nM) it was 12%. Moreover, the inhibition at 0.1 µM is -10% at Ron(h) (100 nM) and 7% at TAO3(h) (100 nM). Moreover, the inhibition at 1 µM at B-Raf(h) (1000 nM) amounted to 5%; on DNA-PK(h) (1000 nM) it was 0%; on MAPK2(h) (1000 nM), 3%; at NEK4(h) (1000 nM), 74%; on NUAK2(h) (1000 nM), 0%; at PKBγ(h) (1000 nM), 20%. The inhibition at 1 µM stood at 28% at Ron(h) (1000 nM) and 36% on TAO3(h) (1000 nM).
